These results are taken from BindingDB's records for PubMed 10869410 (Centre De Recherches De Croissy, 2000).

pKi: −log10 of the molar value. “And” between values parts separate entries of the source, which are not always exact repeats. Identical values can stand only once. Where only a bound is given, the exact number is not on record here.

Test [1] has as its target D(3) dopamine receptor (Homo sapiens, UniProt P35462).
The target in test [2] is 5-hydroxytryptamine receptor 2A (Homo sapiens, UniProt P28223).
Test [3] addresses T1, Alpha-2A adrenergic receptor [16-465] (Rattus norvegicus, UniProt P22909).
T1 construct: 16-465
T1 sequence (P22909 whole entry): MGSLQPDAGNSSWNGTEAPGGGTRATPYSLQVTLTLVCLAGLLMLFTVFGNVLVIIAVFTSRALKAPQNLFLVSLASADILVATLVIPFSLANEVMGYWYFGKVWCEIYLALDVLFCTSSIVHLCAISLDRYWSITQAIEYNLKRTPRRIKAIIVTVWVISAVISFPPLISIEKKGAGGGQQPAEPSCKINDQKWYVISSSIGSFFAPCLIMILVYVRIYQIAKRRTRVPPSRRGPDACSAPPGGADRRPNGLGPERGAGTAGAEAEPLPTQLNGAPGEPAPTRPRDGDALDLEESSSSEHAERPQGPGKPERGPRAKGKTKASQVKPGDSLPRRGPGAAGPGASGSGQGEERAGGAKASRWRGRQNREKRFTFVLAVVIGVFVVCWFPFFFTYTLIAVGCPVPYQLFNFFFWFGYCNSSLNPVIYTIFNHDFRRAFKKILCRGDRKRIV

Test [4] concerns the target 5-hydroxytryptamine receptor 2A (Rattus norvegicus, UniProt P14842).
The target in test [5] is 5-hydroxytryptamine receptor 1B (Homo sapiens, UniProt P28222).
Test [6] addresses 5-hydroxytryptamine receptor 1D (Homo sapiens, UniProt P28221).
Test [7] concerns the target 5-hydroxytryptamine receptor 2B (Homo sapiens, UniProt P41595).
Test [8] concerns the target T2, 5-hydroxytryptamine receptor 1A (Rattus norvegicus, UniProt P19327).
T2 sequence (P19327 whole entry): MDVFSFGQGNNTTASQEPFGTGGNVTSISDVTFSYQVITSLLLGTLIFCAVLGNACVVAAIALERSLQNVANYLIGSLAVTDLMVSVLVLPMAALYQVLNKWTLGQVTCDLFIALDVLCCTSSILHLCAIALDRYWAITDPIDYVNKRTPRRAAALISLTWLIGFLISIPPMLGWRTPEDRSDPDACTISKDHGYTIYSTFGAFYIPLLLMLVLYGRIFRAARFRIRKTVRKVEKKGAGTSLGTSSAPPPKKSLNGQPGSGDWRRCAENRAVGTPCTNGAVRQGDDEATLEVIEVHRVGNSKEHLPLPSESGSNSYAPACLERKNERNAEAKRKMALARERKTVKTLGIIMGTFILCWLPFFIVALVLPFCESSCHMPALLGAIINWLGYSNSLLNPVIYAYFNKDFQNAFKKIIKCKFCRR

In test [9] the target is D(2) dopamine receptor (Rattus norvegicus, UniProt P61169).
In test [10] the target is Sigma non-opioid intracellular receptor 1 (Cavia porcellus, UniProt Q60492).
The target in test [11] is T3, D(4) dopamine receptor (Homo sapiens, UniProt P21917).
T3 sequence (P21917 whole entry): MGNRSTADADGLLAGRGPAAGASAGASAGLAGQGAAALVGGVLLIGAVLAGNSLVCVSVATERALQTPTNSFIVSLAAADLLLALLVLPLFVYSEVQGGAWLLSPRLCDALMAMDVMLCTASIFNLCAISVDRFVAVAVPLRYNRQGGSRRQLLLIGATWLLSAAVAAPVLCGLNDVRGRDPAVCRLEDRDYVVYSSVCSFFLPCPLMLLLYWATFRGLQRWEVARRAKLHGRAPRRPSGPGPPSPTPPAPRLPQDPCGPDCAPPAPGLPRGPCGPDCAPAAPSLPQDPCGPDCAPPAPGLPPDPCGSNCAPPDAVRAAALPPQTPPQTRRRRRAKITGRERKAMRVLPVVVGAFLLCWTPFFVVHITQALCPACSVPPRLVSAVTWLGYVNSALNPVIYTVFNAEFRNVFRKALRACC

The target in test [12] is D(2) dopamine receptor (Homo sapiens, UniProt P14416).
The target of test [13] is T4, Alpha-1A adrenergic receptor (Rattus norvegicus, UniProt P43140).
T4 sequence (P43140 whole entry): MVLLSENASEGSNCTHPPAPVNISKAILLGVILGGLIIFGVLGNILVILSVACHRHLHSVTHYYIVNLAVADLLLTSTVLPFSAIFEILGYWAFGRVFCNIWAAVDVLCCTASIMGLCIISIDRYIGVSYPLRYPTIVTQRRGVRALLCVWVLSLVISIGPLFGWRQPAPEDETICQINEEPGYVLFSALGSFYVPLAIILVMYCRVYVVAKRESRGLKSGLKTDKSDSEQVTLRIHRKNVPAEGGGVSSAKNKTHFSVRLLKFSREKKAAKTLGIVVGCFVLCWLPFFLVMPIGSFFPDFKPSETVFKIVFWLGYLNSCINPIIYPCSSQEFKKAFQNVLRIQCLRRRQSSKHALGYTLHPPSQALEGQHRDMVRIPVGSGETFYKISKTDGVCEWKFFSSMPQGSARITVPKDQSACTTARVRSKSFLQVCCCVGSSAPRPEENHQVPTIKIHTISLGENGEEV

The target in test [14] is D(1A) dopamine receptor (Homo sapiens, UniProt P21728).
In test [15] the target is D(1B) dopamine receptor (Homo sapiens, UniProt P21918).
In test [16] the target is 5-hydroxytryptamine receptor 2C (Sus scrofa, UniProt G7ZKZ7).
In test [17] the target is 5-hydroxytryptamine receptor 2C (Homo sapiens, UniProt P28335).
Test [18] deals with 5-hydroxytryptamine receptor 1A (Homo sapiens, UniProt P08908).
In test [19] the target is 5-hydroxytryptamine receptor 3A (Homo sapiens, UniProt P46098).
Test [20] deals with Muscarinic acetylcholine receptor M1 (Homo sapiens, UniProt P11229).
Test [21] addresses 5-hydroxytryptamine receptor 1B (Cavia porcellus, UniProt O08892).
The target in test [22] is D(1A) dopamine receptor (Rattus norvegicus, UniProt P18901).

D(2) dopamine receptor (Homo sapiens, UniProt P14416), sequence (P14416 whole entry): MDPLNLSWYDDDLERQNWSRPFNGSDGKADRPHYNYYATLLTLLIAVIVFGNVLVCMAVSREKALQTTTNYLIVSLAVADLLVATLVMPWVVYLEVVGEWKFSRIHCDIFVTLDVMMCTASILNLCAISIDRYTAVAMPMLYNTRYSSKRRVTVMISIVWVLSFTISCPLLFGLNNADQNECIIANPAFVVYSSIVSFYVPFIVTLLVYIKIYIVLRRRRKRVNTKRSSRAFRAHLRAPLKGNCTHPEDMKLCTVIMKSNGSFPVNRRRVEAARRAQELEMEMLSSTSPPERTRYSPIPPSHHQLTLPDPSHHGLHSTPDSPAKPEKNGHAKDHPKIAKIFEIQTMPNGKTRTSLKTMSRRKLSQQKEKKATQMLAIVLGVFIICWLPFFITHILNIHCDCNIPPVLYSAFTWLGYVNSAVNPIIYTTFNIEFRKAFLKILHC
D(1B) dopamine receptor, sequence (P21918 whole entry): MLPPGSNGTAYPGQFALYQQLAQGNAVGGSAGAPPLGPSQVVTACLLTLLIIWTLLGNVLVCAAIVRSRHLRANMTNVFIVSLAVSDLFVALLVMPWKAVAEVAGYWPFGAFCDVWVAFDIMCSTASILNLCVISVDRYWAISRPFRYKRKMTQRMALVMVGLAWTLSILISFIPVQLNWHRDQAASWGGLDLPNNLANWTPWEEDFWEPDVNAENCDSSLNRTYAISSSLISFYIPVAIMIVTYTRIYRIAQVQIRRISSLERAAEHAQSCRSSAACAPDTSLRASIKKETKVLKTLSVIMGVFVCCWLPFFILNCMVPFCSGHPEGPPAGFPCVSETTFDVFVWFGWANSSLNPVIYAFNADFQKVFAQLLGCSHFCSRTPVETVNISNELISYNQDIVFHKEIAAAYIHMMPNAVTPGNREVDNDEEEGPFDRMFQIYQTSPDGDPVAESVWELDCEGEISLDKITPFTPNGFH
D(2) dopamine receptor (Rattus norvegicus, UniProt P61169), sequence (P61169 whole entry): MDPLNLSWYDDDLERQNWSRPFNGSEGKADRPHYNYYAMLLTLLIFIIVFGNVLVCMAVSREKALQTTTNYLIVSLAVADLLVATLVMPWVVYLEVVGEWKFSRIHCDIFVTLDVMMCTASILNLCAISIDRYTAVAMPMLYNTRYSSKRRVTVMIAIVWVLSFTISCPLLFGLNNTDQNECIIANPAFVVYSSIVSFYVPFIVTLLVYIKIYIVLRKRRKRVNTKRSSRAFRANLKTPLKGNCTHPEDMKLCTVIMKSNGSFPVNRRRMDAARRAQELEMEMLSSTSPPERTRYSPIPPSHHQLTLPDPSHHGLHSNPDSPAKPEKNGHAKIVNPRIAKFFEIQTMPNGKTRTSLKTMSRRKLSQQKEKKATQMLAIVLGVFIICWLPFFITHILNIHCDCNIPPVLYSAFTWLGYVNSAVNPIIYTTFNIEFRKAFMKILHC
5-hydroxytryptamine receptor 2B, sequence (P41595 whole entry): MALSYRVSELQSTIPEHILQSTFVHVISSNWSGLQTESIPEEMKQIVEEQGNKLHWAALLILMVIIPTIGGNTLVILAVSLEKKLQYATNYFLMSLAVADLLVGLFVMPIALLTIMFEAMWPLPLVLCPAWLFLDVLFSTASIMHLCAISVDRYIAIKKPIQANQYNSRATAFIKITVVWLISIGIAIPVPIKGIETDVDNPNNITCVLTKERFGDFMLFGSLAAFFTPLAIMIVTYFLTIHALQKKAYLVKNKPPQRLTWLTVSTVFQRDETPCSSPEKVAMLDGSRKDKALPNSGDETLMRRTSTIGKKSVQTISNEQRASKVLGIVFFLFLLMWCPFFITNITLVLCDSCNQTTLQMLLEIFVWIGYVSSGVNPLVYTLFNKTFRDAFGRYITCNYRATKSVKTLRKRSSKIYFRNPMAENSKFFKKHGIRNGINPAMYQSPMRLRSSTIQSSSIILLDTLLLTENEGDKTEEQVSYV
5-hydroxytryptamine receptor 2A (Rattus norvegicus, UniProt P14842), sequence (P14842 whole entry): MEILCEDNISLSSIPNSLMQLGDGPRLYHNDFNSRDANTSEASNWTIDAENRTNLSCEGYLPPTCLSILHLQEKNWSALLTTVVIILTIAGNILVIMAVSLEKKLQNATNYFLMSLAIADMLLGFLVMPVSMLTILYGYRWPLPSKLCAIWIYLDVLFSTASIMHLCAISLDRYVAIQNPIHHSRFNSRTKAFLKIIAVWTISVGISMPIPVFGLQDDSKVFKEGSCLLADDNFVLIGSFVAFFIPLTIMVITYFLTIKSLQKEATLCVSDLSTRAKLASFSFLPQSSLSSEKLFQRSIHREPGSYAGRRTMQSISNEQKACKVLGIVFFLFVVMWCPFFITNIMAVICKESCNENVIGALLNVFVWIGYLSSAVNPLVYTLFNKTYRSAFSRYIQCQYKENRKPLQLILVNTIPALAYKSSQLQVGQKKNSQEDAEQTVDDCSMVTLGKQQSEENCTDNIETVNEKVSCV
D(3) dopamine receptor, sequence (P35462 as listed by the source): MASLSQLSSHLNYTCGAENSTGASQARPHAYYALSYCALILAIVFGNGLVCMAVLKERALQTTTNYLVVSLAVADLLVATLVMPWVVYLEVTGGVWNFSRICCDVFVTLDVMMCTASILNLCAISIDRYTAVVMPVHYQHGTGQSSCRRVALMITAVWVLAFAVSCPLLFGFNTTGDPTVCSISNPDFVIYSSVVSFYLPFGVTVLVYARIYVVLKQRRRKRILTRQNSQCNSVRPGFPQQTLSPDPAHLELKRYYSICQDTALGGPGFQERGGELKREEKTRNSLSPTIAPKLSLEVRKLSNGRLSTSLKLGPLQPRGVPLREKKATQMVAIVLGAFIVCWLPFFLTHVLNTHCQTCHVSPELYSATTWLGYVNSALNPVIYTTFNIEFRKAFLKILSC
5-hydroxytryptamine receptor 1B (Homo sapiens, UniProt P28222), sequence (P28222 whole entry): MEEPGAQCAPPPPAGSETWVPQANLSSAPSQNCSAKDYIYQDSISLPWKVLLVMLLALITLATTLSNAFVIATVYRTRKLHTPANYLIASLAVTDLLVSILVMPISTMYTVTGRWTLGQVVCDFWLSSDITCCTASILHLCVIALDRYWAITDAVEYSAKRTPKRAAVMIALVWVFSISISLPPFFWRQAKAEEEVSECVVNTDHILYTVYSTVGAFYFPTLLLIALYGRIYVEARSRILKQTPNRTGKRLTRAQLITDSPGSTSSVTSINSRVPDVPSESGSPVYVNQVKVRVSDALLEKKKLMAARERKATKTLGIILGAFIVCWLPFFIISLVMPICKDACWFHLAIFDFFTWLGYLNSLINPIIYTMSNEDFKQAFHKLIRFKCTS
5-hydroxytryptamine receptor 1D, sequence (P28221 whole entry): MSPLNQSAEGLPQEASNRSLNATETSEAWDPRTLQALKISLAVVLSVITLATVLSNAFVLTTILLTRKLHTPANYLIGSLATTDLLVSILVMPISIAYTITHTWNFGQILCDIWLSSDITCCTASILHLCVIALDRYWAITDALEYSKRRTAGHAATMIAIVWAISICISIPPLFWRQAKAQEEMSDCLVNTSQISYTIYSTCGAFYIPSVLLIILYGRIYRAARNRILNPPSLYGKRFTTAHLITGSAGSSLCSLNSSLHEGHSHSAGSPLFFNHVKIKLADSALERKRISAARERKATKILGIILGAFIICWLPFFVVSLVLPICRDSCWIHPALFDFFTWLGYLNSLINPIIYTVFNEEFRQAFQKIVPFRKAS
5-hydroxytryptamine receptor 2C (Sus scrofa, UniProt G7ZKZ7), sequence (G7ZKZ7 whole entry): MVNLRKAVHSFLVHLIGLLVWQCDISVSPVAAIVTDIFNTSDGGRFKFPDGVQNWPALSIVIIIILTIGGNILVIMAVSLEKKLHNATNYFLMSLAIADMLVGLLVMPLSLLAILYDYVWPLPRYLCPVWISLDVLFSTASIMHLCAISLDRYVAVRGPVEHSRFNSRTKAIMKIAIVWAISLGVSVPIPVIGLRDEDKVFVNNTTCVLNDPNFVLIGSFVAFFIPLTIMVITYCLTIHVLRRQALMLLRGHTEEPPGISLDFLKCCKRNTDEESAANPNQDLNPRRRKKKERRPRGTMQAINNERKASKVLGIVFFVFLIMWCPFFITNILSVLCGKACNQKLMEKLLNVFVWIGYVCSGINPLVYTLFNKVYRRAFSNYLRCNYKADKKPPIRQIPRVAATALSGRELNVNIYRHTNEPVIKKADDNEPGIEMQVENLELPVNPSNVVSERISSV
5-hydroxytryptamine receptor 2C (Homo sapiens, UniProt P28335), sequence (P28335 whole entry): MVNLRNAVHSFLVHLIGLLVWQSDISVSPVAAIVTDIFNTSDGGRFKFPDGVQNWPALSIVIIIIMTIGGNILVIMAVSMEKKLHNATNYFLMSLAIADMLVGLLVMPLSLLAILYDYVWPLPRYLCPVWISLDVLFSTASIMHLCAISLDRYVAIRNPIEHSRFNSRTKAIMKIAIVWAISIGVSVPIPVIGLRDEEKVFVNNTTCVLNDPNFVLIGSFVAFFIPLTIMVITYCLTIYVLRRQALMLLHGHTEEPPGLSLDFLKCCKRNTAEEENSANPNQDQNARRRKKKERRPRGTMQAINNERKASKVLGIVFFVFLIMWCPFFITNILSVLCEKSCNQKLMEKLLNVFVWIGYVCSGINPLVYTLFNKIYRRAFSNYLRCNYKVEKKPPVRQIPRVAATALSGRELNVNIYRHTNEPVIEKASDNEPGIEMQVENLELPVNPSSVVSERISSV
Sigma non-opioid intracellular receptor 1, sequence (Q60492 whole entry): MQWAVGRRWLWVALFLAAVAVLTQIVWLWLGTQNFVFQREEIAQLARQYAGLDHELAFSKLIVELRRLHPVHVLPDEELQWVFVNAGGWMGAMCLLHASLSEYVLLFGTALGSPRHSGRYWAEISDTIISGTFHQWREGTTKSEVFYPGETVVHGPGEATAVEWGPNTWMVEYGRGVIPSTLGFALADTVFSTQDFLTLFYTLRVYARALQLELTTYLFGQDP

With `CCCN(CCC)C1CCc2cc(CS(=O)(=O)c3ccc(OC)cc3)ccc2C1` (stereo not given) [GR218231], the pKi in test [1] is 9.00 and 8.87; in test [2], 6.00; in test [3], 6.40; in test [4], 6.00; in test [5] it was 6.00; in test [6] it was 6.00. In addition, the pKi is 6.00 in [7]; 6.30 in [8]; 7.10 in test [9]; 6.80 in test [10]; less than 5.00 in [11]; 7.20 and 6.86 in test [12]. Further, the pKi in test [13], in [14], in test [15], in [16] and in test [17] was 6.00 each time.

In the case of `OC1(c2ccc(Cl)cc2)CCN(Cc2c[nH]c3ccccc23)CC1` [L741,626], the negative logarithm of the Ki (pKi) in [1] is 7.20 and 7.06; in [3] it was 5.90; in test [4] it was 6.00; in test [5], 6.00; in test [6], 6.00; in test [7] it was 6.20. In addition, the pKi in [8] is 5.40; in test [9], 8.20; in test [11], 6.50; in [13] it was 6.60; in test [15] it was 6.20; in [16] it was 5.40.

Take `N#Cc1ccc2c(c1)[C@H]1CN(CCCCNC(=O)c3ccc(-c4ccccc4)cc3)C[C@@H]1CO2` [S33084]: the negative logarithm of the Ki (pKi) in [1] was 9.60 and 9.40; in [18] it was 6.00; in [2], 6.00; in test [3] it was 6.00; in test [4], 6.00; in test [5], 6.10. The pKi in test [6] is 6.90; in test [7], 6.80; in test [8] it was 6.90; in [9] it was 7.30; in test [10] it was 6.00; in test [11], 5.70. In addition, the pKi in test [19] was 6.00; in test [12], 7.28; in [13] it was 6.90; in test [14], 6.30; in [15], 5.90; in test [20], 6.40. The pKi was 6.00 in test [21], 6.00 in test [22] and 7.10 in test [17].
